Measurements: US20240002377A1, “PYRROLOPYRIDINE COMPOUND AND APPLICATION THEREOF” (MEDSHINE DISCOVERY INC., priority 2020, published 2024)

Target: BTK^C481S (Homo sapiens (Human), UniProt Q06187, C481S)
Assay: BTK enzyme activity assay (33P-ATP filter-binding)
Format: biochemical
Settings: 200 μM ATP; 20 min pre-incubation, 2 h reaction at room temperature; radiometric filter-binding
Description: Assay Example 1: BTK Enzyme Activity Assay
The specific assay process of BTK enzyme activity assay is as follows: Buffer solution: 20 mM hydroxyethyl piperazine ethanesulfonic acid (Hepes) (pH 7.5), 10 mM magnesium chloride, 1 mM ethylenebis(oxyethylenenitrilo)tetraacetic acid (EGTA), 0.02% polyoxyethylene dodecyl ether (Brij35), 0.02 mg/mL BSA, 0.1 mM sodium vanadate (Na3VO4), 2 mM dithiothreitol (DTT), 1% DMSO, 200 μM adenosine triphosphate (ATP). • 1. The substrate was prepared in freshly prepared reaction buffer; • 2. The required cofactor was added to the above-mentioned substrate solution; • 3. The kinase BTK^C481S sis was added to the above-mentioned substrate solution and mix well; • 4. The compound dissolved in DMSO was added to the kinase reaction mixture through Echo550 (Acoustic technology; nanolite range), and the mixture was incubated at room temperature for 20 minutes; • 5. ^33P-ATP (specific activity of radioactivity is 10 μCi/μL) was added to the reaction mixture to initiate the reaction; • 6. The mixture was incubated at room temperature for 2 hours; • 7. The radioactivity was detected by filter-binding method; • 8. Kinase activity data represented the percentage of remaining kinase activity in the assay sample compared to the vehicle (dimethyl sulfoxide) reaction.

Sequence of BTK^C481S (Q06187 whole entry C481S): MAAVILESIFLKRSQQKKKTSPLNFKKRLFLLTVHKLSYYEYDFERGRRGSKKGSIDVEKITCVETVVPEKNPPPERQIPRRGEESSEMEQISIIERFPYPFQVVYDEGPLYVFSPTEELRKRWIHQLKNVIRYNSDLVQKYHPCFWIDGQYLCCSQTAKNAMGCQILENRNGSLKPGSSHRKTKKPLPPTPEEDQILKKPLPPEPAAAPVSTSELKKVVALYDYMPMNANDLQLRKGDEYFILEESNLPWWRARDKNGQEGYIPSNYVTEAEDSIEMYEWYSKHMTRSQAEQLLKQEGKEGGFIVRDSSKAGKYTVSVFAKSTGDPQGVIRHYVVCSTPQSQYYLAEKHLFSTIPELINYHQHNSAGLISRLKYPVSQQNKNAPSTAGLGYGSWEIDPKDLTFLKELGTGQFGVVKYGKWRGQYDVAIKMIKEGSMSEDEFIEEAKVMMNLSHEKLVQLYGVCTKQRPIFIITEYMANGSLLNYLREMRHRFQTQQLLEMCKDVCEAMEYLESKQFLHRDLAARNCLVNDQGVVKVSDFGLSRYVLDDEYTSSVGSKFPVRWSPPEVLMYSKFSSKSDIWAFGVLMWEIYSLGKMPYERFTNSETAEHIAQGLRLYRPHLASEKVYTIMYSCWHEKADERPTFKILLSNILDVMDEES

Row | SMILES | IC50 [nM]
1 | N#Cc1cnc2[nH]cc(C(=O)c3ccc(Oc4cccc(F)c4)cc3Cl)c2c1N[C@@H]1CC[C@@H](CO)OC1 [Compound 1] | 58.9
2 | N#Cc1cnc2[nH]cc(C(=O)c3ccc(Oc4ccccc4F)cc3Cl)c2c1N[C@@H]1CC[C@@H](CO)OC1 [Compound 2] | 11.7

The remaining lines, values ahead:

Row | IC50 [nM] | SMILES
3 | 74.2 | CO[C@@H]1C[C@@H](CO)OC[C@@H]1Nc1c(C#N)cnc2[nH]cc(C(=O)c3ccc(Oc4ccccc4)cc3Cl)c12 [Compound 3]
4 | 7.4 | N#Cc1cnc2[nH]cc(C(=O)c3ccc(Oc4ccccc4)cc3Cl)c2c1N[C@@H]1CC[C@@H](CO)OC1 [Compound 4]
5 | 8.9 | O=C(c1ccc(Oc2ccccc2)cc1Cl)c1c[nH]c2ncc(F)c(N[C@@H]3CC[C@@H](CO)OC3)c12 [Compound 5]
